Key:
HeLa cells = tested on: HeLa cells; parameters: method as in PMID 24489688; conditions: without affecting methylation of other lysins; cited from earlier work
[1] = tested on: H3K27me3 levels in MCF-7 cells; assay: Western blotting of H3K27me3 levels; assay type: cell-based, human
Experimental: Histone isolation was performed according to acid extraction of histones protocol of Shechter and colleagues. Histone concentration was determined by running 5 μL of samples and known concentrations of commercially available purified calf thymus histones (from Sigma Aldrich Cat. #000000010223565001) on a SDS-PAGE gel. The gel is stained with Coomassie blue G 250 (BIO-RAD Cat. #161-0786) for 1 hour at room temperature and then destained in distilled water. The gel image is acquired with ChemiDoc XRS+ Imaging System (Bio-Rad, Hercules, CA, USA) and the volumes of bands of the samples are compared to standard concentrations of calf thymus histone.
Proteins were resolved on a 12% (histones) or 5% (JARID1B) denaturing polyacrylamide gel, using either 4 μg of histone preparation or 40 μg of cell lysate. […] Blots were scanned and analyzed with a ChemiDoc XRS+ Imaging System (Bio-Rad). The volumes of each band of protein was acquired using Bio-Rad’s ImageLab software by means of volume tools using global quantification. The signal for each protein was normalized to the housekeeping protein and ratios with average control values were determined. For histones as loading control was used either total histone H3 detected by a specific antibody or histone H1 levels by staining the upper part of the gel properly cut before protein transfer on nitrocellulose membrane.

[2] = tested on: γ-H2AX levels in MCF-7 cells; assay: Western blotting of H2AX phosphorylation after irradiation; assay type: cell-based, human; conditions: RS5033 10 μM, KDOAM-25 0.03 μM
Experimental: Proteins were resolved on a 12% (histones) or 5% (JARID1B) denaturing polyacrylamide gel, using either 4 μg of histone preparation or 40 μg of cell lysate. After electrophoresis, proteins were transferred on a nitrocellulose membrane (Protran™ […] NC, # 10600002, GE Healthcare (Amersham™), Chicago, IL, USA) via wet transfer method using a Bio-Rad tank. Transfer efficiency was verified via ponceau staining (#P7767, Sigma-Aldrich). Filters were blocked with either milk (#70166, Sigma-Aldrich) or bovine serum albumin (#A3069, Sigma-Aldrich) and then hybridized over night at 4 °C in gentle rotation with the following antibodies: rabbit anti-H3K4me3 (1:1000, #39915, Active Motif, RRID:AB_2687512); rabbit-anti-H3K27me3 (1:1000, #9733, Cell Signaling Technology, RRID:AB_2616029); rabbit-anti- H3K9pan-methylated (1:1000, #4473, RRID:AB_10544693); rabbit-anti-H3 ([…], Cat#1791, ABCAM, RRID:AB_302613); rabbit anti-H2AX (1:1000, Cat#7631, Cell Signaling Technology, RRID:AB_10860771), rabbit anti-Phospho-H2AX (1:1000, Cat#9718, Cell Signaling Technology, RRID:AB_2118009), rabbit anti-JARID1B (1:50, Cell Signaling Technology, Cat#3273 RRID: AB_1264191). Goat-anti-Rabbit Horseradish Peroxidase conjugated (1:10,000, #31460, Thermo Fisher Scientific, Waltham, MA, USA RRID:AB_228341) was used as secondary antibody for 1 hour hybridization at room temperature. Blots were scanned and analyzed with a ChemiDoc XRS+ Imaging System (Bio-Rad). The volumes of each band of protein was acquired using Bio-Rad’s ImageLab software by means of volume tools using global quantification. The signal for each protein was normalized to the housekeeping protein and ratios with average control values were determined. For histones as loading control was used either total histone H3 detected by a specific antibody or histone H1 levels by staining the upper part of the gel properly cut before protein transfer on nitrocellulose membrane.

SMILES	H3K4 demethylation in HeLa cells (HeLa cells)	H3K27me3 levels ([1]; MCF-7, 24 h, three concentrations (1, 10, 30 μM))	decrease of H3K27 tri-methylation ([1]; MCF-7, highest concentration of inhibitor)	ɤH2AX increase normalized to the amount of H2AX ([2]; MCF-7, 6 Gy, 4-36 h)	amount of ɤH2AX ([2]; MCF-7, sham-irradiated and irradiated (6 Gy) cells)
CCOC(=O)c1cccn1C(=O)c1cccc(NS(=O)(=O)c2ccc(OC)cc2)c1 [RS3195]	decrease H3K4 demethylation				
CCOC(=O)c1ccccc1C(=O)c1cccc(NS(=O)(=O)c2ccc(OC)cc2)c1 [RS5033]		decrease	about two-fold	statistically significant at 4 h and 24 h	increases

— article PMC6540222, “Small Molecule Inhibitors of KDM5 Histone Demethylases Increase the Radiosensitivity of Breast Cancer Cells Overexpressing JARID1B” (Molecules, 2019)
